Source: US11913031B2, “Method to reproduce circadian rhythms on a microfluidic chip” (Yissum Research Development Company of the Hebrew …, priority 2017, dated 2024)

How the values were obtained:
HepG2/C3A cells = type: cell-based
Source text: FIGS. 11A-E—FIG. 11A—System schematic. FIG. 11B—Oxygen-quenched decay causes phase shift between the intensity-modulated excitation and emission light. Two-superimposed frequencies were used to screen out background interference. FIG. 11C—Fluorescence image of HepG2/C3A cells and sensor particles after immobilization in a collagen matrix.
Real-time focus independent measurement of oxygen uptake in microfluidic bioreactor: Oxygen uptake is a critical measurement of mitochondrial function and metabolic activity^35, 36. However, electrochemical electrodes require frequent re-calibration, while optical sensors are affected by small changes in focus, cell migration and stage movement, making them unreliable for real time measurements of oxygen uptake. Therefore, the present inventor designed an optical system in which organoids are embedded with nanoprobes containing RuP dye and excited at 532 nm (FIGS. 11A-E). Oxygen is a quencher of RuP phosphorescence, leading to a decrease in decay time. Importantly, decay time is not sensitive to changes in probe concentration or excitation intensity (i.e. cell migration, mechanical movement). To measure in real-time, the present inventor used a novel two-frequency sinusoidal intensity-modulated light, allowing us to filter background interference while measuring phase shift in the emitted light.

HeLa cells = test: Acetaminophen loss of mitochondrial respiration repeated in HeLa cells; type: cell-based
liver = conditions: Table 4 compound list, toxicological end-point; cited from earlier work
E6/E7low 653 hepatocytes = test: Circadian gene expression (RNA sequencing, JTK_CYCLE) after dexamethasone entrainment, line 653; type: cell-based, human; conditions: 100 μM (day medium), 24±4 hours period, adjusted p-values less than 0.005
Description: (§1) E6/E7^low Upcyte™ hepatocytes line 422, from a donor, and line 653, from an old donor, were seeded in OSM-free differentiation media as previously described (Levy et al. Nature Biotechnology 2015). Following 5 days of differentiation, cells were synchronized in corticosteroid-free culture medium for 24 hours, followed by high 100 μM Dexamethasone dose (day medium), entraining a circadian cycle. Triplicate cell-lysate and media samples were collected every 4 hours in the following 2 days. RNA was extracted from lysate samples, using NucleoSpin® RNA (Qiagen, Valencia, Calif.) according to manufacturer's direction. RNA were further reverse-transcribed to increase stability of the molecules and tagmented with in-house produced primers containing unique-per-molecule tags along with unique-per-sample tag, using an in-house developed TN5 enzyme. […] Library construction was conducted using Illumina TruSeq RNA Library Prep V2 Kit (Illumina, San Diego, Calif.) according to manufacturer's protocol and sequenced on Illumina NextSeq500 with single-end, 86 bp reads using the High Output V2 Kit. Sequencing reads were filtered to unique reads only and mapped to the UCSC human transcriptome (genome build hg38) using Bowtie 2. Expression levels of all genes were quantified using bedtools. […]

E6/E7low 422 hepatocytes = test: Circadian gene expression (RNA sequencing, JTK_CYCLE) after dexamethasone entrainment, line 422; type: cell-based, human; conditions: 100 μM (day medium), 24±4 hours period, adjusted p-values less than 0.005
Description: as §1

E6/E7 hepatocytes = test: Conditional proliferation and EMT of E6/E7 human hepatocytes
human hepatocytes = test: Lipid accumulation in human hepatocytes; type: cell-based
Description: The present inventor uses IR-spectroscopy to track this metabolic signature in real time. Wild type and CRY1/2 knockout hepatocytes are perfused with (1) all hormones and factors (FIGS. 17A-B), or with time-average concentrations of (2) melatonin, (3) cortisol, (4) T3, (5) growth hormone, and (6) average temperature. Signature is analysed by IR-spectroscopy every 30 min for 24 hours. IR-spectra is critically compared to intracellular metabolites quantified by LC-MS/MS, as well as specific quantification of triglycerides and bile acids using commercially available kits (FIGS. 16A-F). […] Mechanism is evaluated by systematically perturbing regulators whose activity changed prior to steatosis.

CC(=O)Nc1ccc(O)cc1 [Acetaminophen]
effect on oxygen uptake over time (HepG2/C3A cells): immediate, reversible, dose-dependent loss of oxygen uptake followed by a slow, irreversible, dose-independent death | time at which immediate dose-dependent loss of oxygen uptake concludes (HepG2/C3A cells; human): 60 min | time to total cell death (slow dose-independent loss of oxygen uptake) (HepG2/C3A cells; human): 3 to 5 days | transient loss of mitochondrial respiration in cells that lack CYP2E1 and 3A4 (HeLa cells): repeated in HeLa cells | Toxicity (liver): Apoptosis

CC(=O)Oc1ccccc1C(=O)O [Aspirin]
Toxicity (liver): Steatosis

CN(C)CCCN1c2ccccc2Sc2ccc(Cl)cc21 [Chlorpromazine]
Toxicity (liver): Cholestasis

C[C@@H]1C[C@H]2[C@@H]3CCC4=CC(=O)C=C[C@]4(C)[C@@]3(F)[C@@H](O)C[C@]2(C)[C@@]1(O)C(=O)CO [Dexamethasone, 9α-fluoro-11β,17α,21-trihydroxy-16α-methylpregna-1,4-diene-3,20-dione]
genes with circadian expression pattern (E6/E7low 653 hepatocytes): 41 genes | genes with circadian expression pattern (E6/E7low 422 hepatocytes): 267 genes

Cc1c(C)c2c(c(C)c1O)CCC(C)(COc1ccc(CC3SC(=O)NC3=O)cc1)O2 (centres unmarked) [Troglitazone]
Toxicity (liver): Cholestasis

N#CC(=C(/N)Sc1ccccc1N)/C(C#N)=C(\N)Sc1ccccc1N [U0126]
Epithelial-to-mesenchymal transition (EMT) (E6/E7 hepatocytes): blocked | epithelial morphology and cell polarization (E6/E7 hepatocytes): stabilizing epithelial morphology and cell polarization

COc1ccc2[nH]cc(CCNC(C)=O)c2c1 [melatonin, Melatonin]
lipid accumulation (human hepatocytes): induce lipid accumulation

B1: Oncostatin m (protein, UniProt P13725 26-221, looked up)
Oncostatin-M: AAIGSCSKEYRVLLGQLQKQTDLMQDTSRLLDPYIRIQGLDVPKLREHCRERPGAFPSEETLRGLGRRGFLQTLNATLGCVLHRLADLEQRLPKAQDLERSGLNIEDLEKLQMARPNILGLRNNIYCMAQLLDNSDTAEPTKAGRGASQPPTPTPASDAFQRKLEGCRFLHGYHRFMHSVGRVFSKWGESPNRSRR
doubling time of Jak-STAT3 dependent proliferation (E6/E7 hepatocytes; OSM stimulation): 40 h
